Laboratory results published in patent US9872904B2, “Photoimmunoconjugates for use in photodynamic therapy” (Fraunhofer-Gesellschaft zur Foerderung der angewandten …, priority 2012, dated 2018).

Columns and labels:
[1] = tested on: A431, MDA-MB-231, MDA-MB468 and SiHa cells; assay: Confocal microscopy binding and internalization, EGFR^+ cells; assay type: cell-based, human
Procedure: (§1) Images were visualized with a TCS SP5 confocal microscope (LEICA Microsystem, Wetzlar, Germany). Cells were prepared as described above for flow cytometry. Binding efficiency was determined by incubating cells with the labeled fusion proteins for 30 min on ice. Internalization was monitored by incubating cells with the labeled fusion proteins for 30 min at 37° C.

CHO-K1 = assay: XTT cell proliferation assay (phototoxicity), CHO-K1 negative control; assay type: cell-based, Chinese hamster; conditions: CHO-K1 exposed to 800 nM; with light activation
Procedure: All cell lines were […], including the EGFR^+ A431, MDA-MB-231, MDA-MB468 and SiHa cells, and the EGFR^− L540, CHO-K1 and HEK-293T cells. A431, L540, CHO-K1 and HEK-293T cells were cultured in RPMI-1640 medium supplemented with 2 mM L-glutamine, 10% (v/v) fetal bovine serum (FBS) and 100 U/ml penicillin-streptomycin. MDA-MB-231, MDA-MB468 and SiHa cells were cultured in DMEM with 10% (v/v) fetal bovine serum (FBS) and 100 U/ml penicillin-streptomycin. All cells were incubated at 37° C. in a 5% CO2 atmosphere. All media and additives were obtained from Invitrogen, Darmstadt, Germany.
(§2) Control cultures were incubated with 500 μg/ml zeocin instead of the photosensitizer. The cells were then irradiated with 24 J/cm^2 broadband visible/near infrared light using Hydrosun type 505, 7-mm water cuvette and orange filter OG590, spectrum in the range 580-1400 nm (Hydrosun Medizintechnik GmbH, Müllheim, Germany) and incubated for a further 24 h at 37° C. in a 5% CO2 atmosphere.
Cell viability was determined using the XTT cell proliferation kit II (Roche, Mannheim Germany), 24 h after light activation. […] Reduction of XTT to formazan by viable tumor cells was monitored colorimetrically at an absorbance wavelength of 450 nm and a reference wavelength of 630 nm using an ELISA plate reader Elisareader ELx808 (Bio-TEK, Bad Friedrichsahll, Germany).

caspase-3 and caspase-7 = assay: Apo-ONE Homogeneous Caspase-3/7 Assay; assay type: cell-based, human; conditions: 200 nM; 24 h after light activation; A431, MDA-MB-231, MDA-MB468, SiHa and CHO-K1 cells analyzed
Procedure: as §2
Caspase-3/7 activity in cell lysates was determined using the Apo-ONE Caspase-3/7 assay (Promega, Mannheim, Germany) 24 h after light activation. Briefly, 100 μl of Apo-ONE reagent was added to the cells, and they were incubated for 6 h before fluorescence readings were taken with an ELISA plate reader Elisareader ELx808 (Bio-TEK, Bad Friedrichsahll, Germany) using an excitation wavelength of 485 nm and an emission wavelength of 535 nm. The concentration of ROS was determined by measuring the 485/535 nm fluorescence ratio of H2DCFDA (Invitrogen, Darmstadt, Germany). […] The cells were washed twice with warm PBS containing 2.5% FCS, cultured for 2 h in […] medium and illuminated as described above. Fluorescence readings were taken directly after illumination. A blank probe (cells and medium) reading was used as the background and subtracted from all the sample readings.

A431 cells = assay: ROS generation (carboxy-H2DCFDA fluorescence) in photosensitized A431 cells; assay type: cell-based, human; conditions: 200 nM
Procedure: Caspase-3/7 activity in cell lysates was determined using the Apo-ONE Caspase-3/7 assay (Promega, Mannheim, Germany) 24 h after light activation. […] The cells were washed twice with warm PBS containing 2.5% FCS, cultured for 2 h in […] medium and illuminated as described above. Fluorescence readings were taken directly after illumination. A blank probe (cells and medium) reading was used as the background and subtracted from all the sample readings.

[2] = tested on: EGFR^− cell lines L540 and CHO-K1; assay: Confocal microscopy binding and internalization, EGFR^− cells; assay type: cell-based, human; conditions: 4° C. and 37° C.
Procedure: as §1

scFv-425-SNAP-Ce6 was tested, and the “membrane staining (confocal microscopy)” value ([1]; 0.5 μg, 30 min at 4° C.) was “strong, specific and homogeneous membrane staining”, the “internalization (uptake into cells, confocal microscopy)” value ([1]; 30-min incubation at 37° C.) was “specifically and efficiently taken up” and the cell viability (CHO-K1) was “remained unaffected”. For the same substance, the “levels of caspase-3 and caspase-7” value (caspase-3 and caspase-7) was “increased”, the “ROS synthesis (DCF 485/535-nm fluorescence)” value (A431 cells; after light activation) was “burst of ROS synthesis” and the “ROS levels (DCF 485/535-nm fluorescence)” value (A431 cells; non-irradiated cells) was “only a small increase in ROS levels”. For the same substance, the “Ce6 fluorescence signal (confocal microscopy)” value [2] was “no signal was detected”.
